Experimental findings from patent US7968725B2, “Pyridinyl modulators of γ-secretase” (Janssen Pharmaceutica N.V., priority 2008, dated 2011) are described below.

Molecules are shown by their SMILES.

The target in the test is T1, γ-secretase (Homo sapiens, UniProt P49768).
T1 construct: endogenous in cells; host or cells: SKNBE2 cells carrying APP 695 wild type
Description: Screening for γ-secretase-modulating activity in SKNBE2 cells carrying the APP 695-wild type (assay per Citron et al 1997). It is filed as cell-based. The following applies: SKNBE2 cells carrying APP 695-wild type. The protocol: Screening of the Compounds of the Invention for γ-Secretase-Modulating Activity
Screening was carried out using SKNBE2 cells carrying the APP 695-wild type, grown in DMEM/NUT-mix F12 (HAM) provided by Gibco (cat no. 31330-38) containing 5% Serum/Fe supplemented with 1% non-essential amino acids.
Cells were grown to near confluency.
The screening was performed using the assay as described in Citron et al (1997) Nature Medicine 3: 67.

`CC(C)CC(C(=O)O)c1cc(-c2ccc(C(F)(F)F)cc2)nc(-c2cccc(-c3ccccc3)c2)c1` (stereo not shown) [Example 35, 2-[2-Biphenyl-3-yl-6-(4-trifluoromethyl-phenyl)-pyridin-4-yl]-4-methyl-pentanoic acid] gave an inhibition at 1 µM of 53%. `CC(C)COc1cccc(-c2cc(C(CC(C)C)C(=O)O)cc(-c3ccc(C(F)(F)F)cc3)n2)c1` (stereo not shown) [Example 36, 2-[2-(3-Isobutoxy-phenyl)-6-(4-trifluoromethyl-phenyl)-pyridin-4-yl]-4-methyl-pentanoic acid] yielded an inhibition at 1 µM of 41%. On the same count and under the same terms, to `CC(C)CC(C(=O)O)c1cc(-c2ccc(Oc3ccccc3)cc2)nc(-c2ccc(C(F)(F)F)cc2)c1` (stereo not shown) [Example 37, 4-Methyl-2-[2-(4-phenoxy-phenyl)-6-(4-trifluoromethyl-phenyl)-pyridin-4-yl]-pentanoic acid] belongs 73%; to `CC(C)CC(C(=O)O)c1cc(-c2ccccc2)nc(-c2ccc(C(F)(F)F)cc2)c1` (stereo not shown) [Example 38, 4-Methyl-2-[2-phenyl-6-(4-trifluoromethyl-phenyl)-pyridin-4-yl]-pentanoic acid], 8%.

Compound `CC(C)CC(C(=O)O)c1cc(-c2ccc(C(F)(F)F)cc2)nc(-c2ccc(S(C)(=O)=O)cc2)c1` (stereo not shown) [Example 39, 2-[2-(4-Methanesulfonyl-phenyl)-6-(4-trifluoromethyl-phenyl)-pyridin-4-yl]-4-methyl-pentanoic acid] had an inhibition at 1 µM of 18%.

Take `CC(C)CC(C(=O)O)c1cc(-c2ccc(C(F)(F)F)cc2)nc(N(CC(C)C)c2ccc(C(F)(F)F)cc2)c1` (stereo not shown) [Example 40, 2-[2-[Isobutyl-(4-trifluoromethyl-phenyl)-amino]-6-(4-trifluoromethyl-phenyl)-pyridin-4-yl]-4-methyl-pentanoic acid]: the response was half-maximal at 340 nM (EC50). The same measure, in the same setting: to `CC(C)CCN(c1ccc(C(F)(F)F)cc1)c1cc(C(CC(C)C)C(=O)O)cc(-c2ccc(C(F)(F)F)cc2)n1` (stereo not shown) [Example 41, 4-Methyl-2-[2-[(3-methyl-butyl)-(4-trifluoromethyl-phenyl)-amino]-6-(4-trifluoromethyl-phenyl)-pyridin-4-yl]-pentanoic acid] belongs 300 nM. `CC(C)CCN(c1ccc(C(F)(F)F)cc1)c1cc(CC(=O)O)cc(-c2ccc(C(F)(F)F)cc2)n1` [Example 42, [2-[(3-Methyl-butyl)-(4-trifluoromethyl-phenyl)-amino]-6-(4-trifluoromethyl-phenyl)-pyridin-4-yl]-acetic acid] had an inhibition at 1 µM of 36%.

Take `O=C(O)Cc1cc(-c2ccc(C(F)(F)F)cc2)nc(N(CCC2CCCCC2)c2ccc(C(F)(F)F)cc2)c1` [Example 43, [2-[(2-Cyclohexyl-ethyl)-(4-trifluoromethyl-phenyl)-amino]-6-(4-trifluoromethyl-phenyl)-pyridin-4-yl]-acetic acid]: the inhibition at 1 µM is 56%. In turn, `CC(C)CC(C(=O)O)c1cc(-c2ccc(C(F)(F)F)cc2)nc(N(CCC2CCCCC2)c2ccc(C(F)(F)F)cc2)c1` (stereo not shown) [Example 44, 2-[2-[(2-Cyclohexyl-ethyl)-(4-trifluoromethyl-phenyl)-amino]-6-(4-trifluoromethyl-phenyl)-pyridin-4-yl]-4-methyl-pentanoic acid] gave a concentration giving a half-maximal response (EC50) of 640 nM. In the case of `CC(C)CC(C(=O)O)c1cc(-c2ccc(C(F)(F)F)cc2)nc(N(CCN2CCCCC2)c2ccc(C(F)(F)F)cc2)c1` (stereo not shown) [Example 45, 4-Methyl-2-[2-[(2-piperidin-1-yl-ethyl)-(4-trifluoromethyl-phenyl)-amino]-6-(4-trifluoromethyl-phenyl)-pyridin-4-yl]-pentanoic acid], the inhibition at 1 µM was 20%. Turning to `CC(C)CCN(c1ccc(C(C)(C)C)cc1)c1cc(C(CC(C)C)C(=O)O)cc(-c2ccc(C(F)(F)F)cc2)n1` (stereo not shown) [Example 46, 2-[2-[(4-tert-Butyl-phenyl)-(3-methyl-butyl)-amino]-6-(4-trifluoromethyl-phenyl)-pyridin-4-yl]-4-methyl-pentanoic acid], 1 µM produced 22% inhibition. For the compound `CC(C)CCN(c1ccc(C(C)(C)C)cc1)c1cc(CC(=O)O)cc(-c2ccc(C(F)(F)F)cc2)n1` [Example 47, [2-[(4-tert-Butyl-phenyl)-(3-methyl-butyl)-amino]-6-(4-trifluoromethyl-phenyl)-pyridin-4-yl]-acetic acid], the concentration giving a half-maximal response (EC50) amounted to 1290 nM.

As a reminder, the inhibition is the drop in the measured response relative to a control, in per cent. Low values mean a response near the control, high ones a response far below the control. The term EC50 denotes the concentration needed to bring the measured effect to its halfway point. Read a low EC50 as a more potent agent.
